Measurements taken from ChEMBL document CHEMBL3399932, “Synthesis of new N-benzylpiperidine derivatives as cholinesterase inhibitors with β-amyloid anti-aggregation properties and beneficial effects on memory in vivo” (Bioorg Med Chem, 2015).
Activity calls are given as the source filed them. The rule behind the calls is not given here.

What was measured:
Acetylcholinesterase = Acetylcholinesterase (Electrophorus electricus, UniProt O42275)
Cholinesterase = Cholinesterase (Equus caballus, UniProt P81908)
[1] = target: Acetylcholinesterase (Electrophorus electricus) (UniProt O42275); assay: Inhibition of electric eel AChE using acetylthiocholine iodide as substrate preincubated at 10^-4 mol/L for 5 mins by Ellman method
[2] = PAMPA, 2 h
[3] = target: Cholinesterase (Equus caballus) (UniProt P81908); assay: Inhibition of horse serum BChE using butyrylthiocholine iodide as substrate preincubated at 10^-4 mol/L for 5 mins by Ellman method
[4] = target: Cholinesterase (Equus caballus) (UniProt P81908); assay: Inhibition of horse serum BChE using butyrylthiocholine iodide as substrate preincubated at 0.5 to 1 uM for 5 mins by Lineweaver-Burk plot method
[5] = target: Acetylcholinesterase (Electrophorus electricus) (UniProt O42275); conditions: 5 to 10 uM
Mus musculus [6] = assay: (§1) Effect on scopolamine-induced cognitive dysfunction in albino Swiss CD-1 mouse assessed as reduction in step-through latency time at 5 to 30 mg/kg, ip administered 1 hr before the acquisition trial by passive avoidance test; assay type: functional, organism-based
[7] = target: Amyloid-beta precursor protein (Homo sapiens) (UniProt P05067); assay: Inhibition of self-induced beta-amyloid (1 to 42) (unknown origin) aggregation by thioflavin-T assay
Mus musculus [8] = assay: as §1, with “time during retention trial” for “time”, “trial measured 24 hrs after acquisition trial over 180 seconds” for “trial”; assay type: functional, organism-based
Mus musculus [9] = assay: Sedative activity in albino Swiss CD-1 mouse assessed as decrease in spontaneous locomotor activity at 30 mg/kg, ip administered 1 hr before test measured at 18 to 30 mins of test; assay type: ADME, organism-based; set-up: dose 30 mg/kg, route intraperitoneal; conditions: in vivo
Mus musculus [10] = assay: Sedative activity in albino Swiss CD-1 mouse assessed as decrease in spontaneous locomotor activity at 30 mg/kg, ip administered 1 hr before test measured up to 6 mins of test; assay type: ADME, organism-based; set-up: dose 30 mg/kg, route intraperitoneal; conditions: in vivo
Mus musculus [11] = assay: Toxicity in albino Swiss CD-1 mouse assessed as decrease in impairment of motor coordination at 6 to 18 rpm at 30 to 100 mg/kg, ip administered 1 hr before test by rotarod test; assay type: organism-based; set-up: dose 30-100 mg/kg, route intraperitoneal; conditions: in vivo
Mus musculus [12] = assay: Toxicity in albino Swiss CD-1 mouse assessed as decrease in impairment of motor coordination at 24 rpm at 100 mg/kg, ip administered 1 hr before test by rotarod test; assay type: organism-based; set-up: dose 100 mg/kg, route intraperitoneal; conditions: in vivo
Mus musculus [13] = assay: Toxicity in albino Swiss CD-1 mouse assessed as decrease in impairment of motor coordination at 24 rpm at 30 mg/kg, ip administered 1 hr before test by rotarod test; assay type: organism-based; set-up: dose 30 mg/kg, route intraperitoneal; scale not given: the % may be the effect or the level left; conditions: in vivo

Cholinesterase, sequence (P81908 whole entry): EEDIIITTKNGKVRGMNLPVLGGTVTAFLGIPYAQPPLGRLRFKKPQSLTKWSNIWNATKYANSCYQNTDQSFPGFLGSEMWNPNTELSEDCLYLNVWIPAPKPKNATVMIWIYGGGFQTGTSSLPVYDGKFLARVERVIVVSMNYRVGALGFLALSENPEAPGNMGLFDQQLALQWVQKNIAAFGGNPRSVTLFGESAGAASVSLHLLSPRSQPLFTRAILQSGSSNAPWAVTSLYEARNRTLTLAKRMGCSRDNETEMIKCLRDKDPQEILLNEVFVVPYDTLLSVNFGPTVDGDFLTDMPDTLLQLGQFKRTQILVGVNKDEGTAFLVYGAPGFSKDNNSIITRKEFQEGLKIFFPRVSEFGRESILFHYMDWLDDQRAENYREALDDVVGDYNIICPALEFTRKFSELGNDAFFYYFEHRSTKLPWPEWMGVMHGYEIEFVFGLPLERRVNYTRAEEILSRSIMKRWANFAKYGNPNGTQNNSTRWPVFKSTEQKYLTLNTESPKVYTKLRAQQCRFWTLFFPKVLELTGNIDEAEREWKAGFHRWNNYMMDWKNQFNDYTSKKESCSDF
Acetylcholinesterase (Electrophorus electricus), sequence (O42275 24-633 limits assumed): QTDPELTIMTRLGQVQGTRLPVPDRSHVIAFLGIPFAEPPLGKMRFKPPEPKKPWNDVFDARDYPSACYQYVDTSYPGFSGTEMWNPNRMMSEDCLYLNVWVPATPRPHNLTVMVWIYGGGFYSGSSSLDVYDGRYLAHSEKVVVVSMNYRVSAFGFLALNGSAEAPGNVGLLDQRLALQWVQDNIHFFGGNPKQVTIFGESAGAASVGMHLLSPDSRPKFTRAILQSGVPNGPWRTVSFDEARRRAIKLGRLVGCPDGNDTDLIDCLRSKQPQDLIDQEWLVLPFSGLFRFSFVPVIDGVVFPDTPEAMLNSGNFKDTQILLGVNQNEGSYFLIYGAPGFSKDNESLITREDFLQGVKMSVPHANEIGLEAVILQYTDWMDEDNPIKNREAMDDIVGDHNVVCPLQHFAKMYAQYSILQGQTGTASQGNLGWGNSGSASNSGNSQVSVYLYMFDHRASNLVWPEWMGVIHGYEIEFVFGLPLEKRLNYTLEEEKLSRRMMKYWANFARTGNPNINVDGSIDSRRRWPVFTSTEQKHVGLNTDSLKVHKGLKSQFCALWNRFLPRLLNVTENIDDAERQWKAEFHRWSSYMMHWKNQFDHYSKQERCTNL
Acetylcholinesterase, sequence (O42275 whole entry): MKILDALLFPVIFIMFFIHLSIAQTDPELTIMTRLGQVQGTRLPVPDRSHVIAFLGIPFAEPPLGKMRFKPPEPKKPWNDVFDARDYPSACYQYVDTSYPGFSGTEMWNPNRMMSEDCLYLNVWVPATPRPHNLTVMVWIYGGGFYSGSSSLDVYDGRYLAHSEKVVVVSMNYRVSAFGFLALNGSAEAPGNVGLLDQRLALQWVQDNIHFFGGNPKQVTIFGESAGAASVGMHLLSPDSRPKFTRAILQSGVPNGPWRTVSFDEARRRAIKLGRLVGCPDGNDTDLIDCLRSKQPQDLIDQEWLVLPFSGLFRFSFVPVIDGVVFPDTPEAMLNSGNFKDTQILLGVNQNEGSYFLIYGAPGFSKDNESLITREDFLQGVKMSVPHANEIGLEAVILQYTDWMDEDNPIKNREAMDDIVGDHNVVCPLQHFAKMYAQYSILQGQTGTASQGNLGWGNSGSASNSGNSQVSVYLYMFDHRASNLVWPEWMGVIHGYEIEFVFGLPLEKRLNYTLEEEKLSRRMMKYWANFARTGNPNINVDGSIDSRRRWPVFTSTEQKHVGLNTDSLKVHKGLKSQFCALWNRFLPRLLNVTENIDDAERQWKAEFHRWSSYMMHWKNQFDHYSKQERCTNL
Cholinesterase (Equus caballus), sequence (P81908 whole entry): as the sequence (P81908 whole entry) above
Amyloid-beta precursor protein (Homo sapiens), sequence (P05067 whole entry): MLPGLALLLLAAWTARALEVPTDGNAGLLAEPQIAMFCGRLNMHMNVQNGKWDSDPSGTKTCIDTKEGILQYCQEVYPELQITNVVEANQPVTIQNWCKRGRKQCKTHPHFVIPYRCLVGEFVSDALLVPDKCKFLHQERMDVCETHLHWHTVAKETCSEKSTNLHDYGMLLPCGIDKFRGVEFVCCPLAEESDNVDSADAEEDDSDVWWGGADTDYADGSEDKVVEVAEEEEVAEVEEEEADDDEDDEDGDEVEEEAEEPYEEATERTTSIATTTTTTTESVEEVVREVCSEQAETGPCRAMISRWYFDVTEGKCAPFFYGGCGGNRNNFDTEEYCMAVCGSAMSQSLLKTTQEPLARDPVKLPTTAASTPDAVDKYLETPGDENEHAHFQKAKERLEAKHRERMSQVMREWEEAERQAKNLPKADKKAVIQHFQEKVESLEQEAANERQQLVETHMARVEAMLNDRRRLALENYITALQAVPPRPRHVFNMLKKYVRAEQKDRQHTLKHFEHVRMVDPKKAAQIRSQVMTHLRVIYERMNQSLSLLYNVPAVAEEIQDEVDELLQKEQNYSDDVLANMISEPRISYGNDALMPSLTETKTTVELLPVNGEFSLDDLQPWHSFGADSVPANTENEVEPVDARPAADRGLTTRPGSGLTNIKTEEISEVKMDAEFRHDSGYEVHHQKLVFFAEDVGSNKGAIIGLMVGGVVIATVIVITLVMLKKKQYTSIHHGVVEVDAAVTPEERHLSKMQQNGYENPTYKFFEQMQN

| Compound | IC50 (Acetylcholinesterase) [µM] | IC50 (Cholinesterase) [µM] | other results |
| --- | --- | --- | --- |
| Fc1ccccc1CN1CCC(NCCCCCCCCn2ccc3ccccc32)CC1 | 29.6 | 0.93 |  |
| COc1ccc(CN2CCC(NCCCCCCCCn3ccc4ccccc43)CC2)cc1 |  | 0.34 | inhibition [1]: < 60% |
| O=C1c2ccccc2C(=O)N1CCCNC1CCN(Cc2ccccc2F)CC1 | 23.1 | 10.5 |  |
| Oc1ccc(CN2CCC(NCCCCCCn3ccc4ccccc43)CC2)cc1 |  | 1.78 | inhibition [1]: < 60% |
| Clc1cccc(CN2CCC(NCCCCCCCCn3ccc4ccccc43)CC2)c1 | 21.7 | 0.75 |  |
| CC(=O)[C@H]1CC[C@H]2[C@@H]3CCC4=CC(=O)CC[C@]4(C)[C@H]3CC[C@]12C [PROGESTERONE] |  |  | log Pe [2]: -5.1 |
| c1ccc(CN2CCC(NCCCCCCn3ccc4ccccc43)CC2)cc1 | 0.01 | 15.3 |  |
| Fc1ccccc1CN1CCC(NCCCCCCn2ccc3ccccc32)CC1 | 42 | 3.41 |  |
| O=C1c2ccccc2C(=O)N1CCCCCCNC1CCN(Cc2ccc(O)cc2)CC1 | 29.8 | 2.32 |  |
| CC(C)NCC(O)COc1cccc2ccccc12 (stereo not drawn) [PROPRANOLOL] |  |  | log Pe [2]: -3.5 |
| Clc1cccc(CN2CCC(NCCCCCCn3ccc4ccccc43)CC2)c1 | 53.2 | 0.83 |  |
| O=C1c2ccccc2C(=O)N1CCCCCNC1CCN(Cc2ccccc2)CC1 | 69 |  | inhibition [3]: < 60% |
| O=C1c2ccccc2C(=O)N1CCCCCCCCNC1CCN(Cc2ccccc2F)CC1 | 43.4 | 1.87 |  |
| O=C1c2ccccc2C(=O)N1CCCCCCCCNC1CCN(Cc2ccccc2)CC1 | 17.7 | 1.98 |  |
| O=C1c2ccccc2C(=O)N1CCCCCCNC1CCN(Cc2cccc(Cl)c2)CC1 | 54.4 | 2.73 |  |
| c1ccc(CN2CCC(NCCCCCCCCn3ccc4ccccc43)CC2)cc1 | 70.1 | 1.08 |  |
| c1ccc(CN2CCC(NCCCCCn3ccc4ccccc43)CC2)cc1 | 0.02 | 1.83 |  |
| O=C1c2ccccc2C(=O)N1CCCNC1CCN(Cc2ccc(O)cc2)CC1 | 4.52 | 9.37 | inhibition [4]: Active; inhibition [5]: Active |
| O=C1c2ccccc2C(=O)N1CCCCCCNC1CCN(Cc2ccccc2)CC1 | 45.4 | 12.8 |  |
| O=C1c2ccccc2C(=O)N1CCCNC1CCN(Cc2ccccc2)CC1 | 8.11 | 51.8 |  |
| COc1ccc(CN2CCC(NCCCCCCN3C(=O)c4ccccc4C3=O)CC2)cc1 |  | 7.39 | inhibition [1]: < 60% |
| O=C1c2ccccc2C(=O)N1CCCCCCCCNC1CCN(Cc2ccc(O)cc2)CC1 | 23.5 | 0.81 |  |
| O=C1c2ccccc2C(=O)N1CCCCCCCCNC1CCN(Cc2cccc(Cl)c2)CC1 |  | 0.72 | inhibition [1]: < 60%; Activity (Mus musculus [6]): Active; inhibition [7]: Dose-dependent effect; Activity (Mus musculus [8]): Active; Activity (Mus musculus [9]): Toxic; Activity (Mus musculus [10]): Non-toxic; Activity (Mus musculus [11]): Non-toxic; Activity (Mus musculus [12]): Toxic; Activity (Mus musculus [13]): 38% |
| COc1ccc(CN2CCC(NCCCN3C(=O)c4ccccc4C3=O)CC2)cc1 |  | 26.8 | inhibition [1]: < 60% |
| COc1ccc(CN2CCC(NCCCCCCn3ccc4ccccc43)CC2)cc1 |  | 0.52 | inhibition [1]: < 60% |
| Oc1ccc(CN2CCC(NCCCCCCCCn3ccc4ccccc43)CC2)cc1 |  | 1.33 | inhibition [1]: < 60% |
| c1ccc(CN2CCC(NCCCn3ccc4ccccc43)CC2)cc1 |  | 0.002 | inhibition [1]: < 60% |
| O=C1c2ccccc2C(=O)N1CCCCCCNC1CCN(Cc2ccccc2F)CC1 | 85.3 | 4 |  |
| COc1ccc(CN2CCC(NCCCCCCCCN3C(=O)c4ccccc4C3=O)CC2)cc1 | 43.3 | 5.65 |  |
| O=C1c2ccccc2C(=O)N1CCCNC1CCN(Cc2cccc(Cl)c2)CC1 | 68.3 | 4.53 |  |
